# Measurements published in patent US5877210A, “Phosphotyrosine phosphatase inhibitors or phosphotyrosine kinase activators for controlling cellular proliferation” (priority 1995, dated 1999).
# Tested on: normal peripheral B cells
# Assay: Normal peripheral B cell [3H]-thymidine incorporation
# Assay type: cell-based, human
# Description: In the experiment reported in Table 4, monoclonal antibodies to CD20 and CD40 were used to stimulate proliferation. Peripheral B cells were isolated from two healthy human volunteers. The cells were stimulated as listed in Table 4 and the effects of various doses of BMLOV on proliferation, as measured by [^3 H]-thymidine incorporation, were determined. BMLOV was able to inhibit proliferation induced by CD20, CD40, IL-4 and PMA in the various combinations tested. The cells from donor 2 were more sensitive, indicating some variation among individuals in their sensitivity to the drug.
# Stimulation of CD20 was via monoclonal antibody 1F5 and stimulation of CD40 was via monoclonal antibody G28-5.
# For assays of cellular proliferation, cells were grown five days in the presence of the indicated concentrations of BMLOV, pulsed 6 hr with [^3 H]-thymidine (New England Nuclear, Boston, Mass.), and counted in a liquid scintillation counter. Human peripheral blood lymphocytes (PBL) from normal volunteers were isolated from lymphocyte separation medium (Litton Bionetics, Kensington, Md.) by density gradient centrifugation. Monocytes were depleted from PBL by two rounds of plastic absorption for 30 minutes at 37° C. B cells were enriched for by negative selection using complement plus monoclonal antibodies to CD2, CD3, CD4, and CD8 for complement depletion. Clonogenic assays of colony formation in methylcellulose medium were performed as previously described (F. M. Uckun et al. (1992), supra).
structure (smiles),measurement,setting,value
"Cc1occc(=O)c1[O-].Cc1occc(=O)c1[O-].[O]=[V+2] [BMLOV, Bis(maltolato)oxovanadium (IV)]",[3H]cpm incorporation,"Donor #1, CD20 + CD40, 1 μM BMLOV",3619 cpm
same,[3H]cpm incorporation,"Donor #1, CD20 + CD40, 5 μM BMLOV",3644 cpm
same,[3H]cpm incorporation,"Donor #1, CD20 + CD40, 10 μM BMLOV",3422 cpm
same,[3H]cpm incorporation,"Donor #1, CD20 + CD40, 25 μM BMLOV",2432 cpm
same,[3H]cpm incorporation,"Donor #1, CD40 + IL4, 1 μM BMLOV",31966 cpm
same,[3H]cpm incorporation,"Donor #1, CD40 + IL4, 5 μM BMLOV",33845 cpm
same,[3H]cpm incorporation,"Donor #1, CD40 + IL4, 10 μM BMLOV",31637 cpm
same,[3H]cpm incorporation,"Donor #1, CD40 + IL4, 25 μM BMLOV",24933 cpm
same,[3H]cpm incorporation,"Donor #1, PMA + CD40, 1 μM BMLOV",62643 cpm
same,[3H]cpm incorporation,"Donor #1, PMA + CD40, 5 μM BMLOV",58418 cpm
same,[3H]cpm incorporation,"Donor #1, PMA + CD40, 10 μM BMLOV",45330 cpm
same,[3H]cpm incorporation,"Donor #1, PMA + CD40, 25 μM BMLOV",25536 cpm
same,[3H]cpm incorporation,"Donor #1, PMA + IL4, 1 μM BMLOV",61415 cpm
same,[3H]cpm incorporation,"Donor #1, PMA + IL4, 5 μM BMLOV",48724 cpm
same,[3H]cpm incorporation,"Donor #1, PMA + IL4, 10 μM BMLOV",45278 cpm
same,[3H]cpm incorporation,"Donor #1, PMA + IL4, 25 μM BMLOV",14277 cpm
same,[3H]cpm incorporation,"Donor #2, CD20 + CD40, 1 μM BMLOV",4593 cpm
same,[3H]cpm incorporation,"Donor #2, CD20 + CD40, 5 μM BMLOV",5681 cpm
same,[3H]cpm incorporation,"Donor #2, CD20 + CD40, 10 μM BMLOV",5269 cpm
same,[3H]cpm incorporation,"Donor #2, CD20 + CD40, 25 μM BMLOV",856 cpm
same,[3H]cpm incorporation,"Donor #2, CD40 + IL4, 1 μM BMLOV",16597 cpm
same,[3H]cpm incorporation,"Donor #2, CD40 + IL4, 5 μM BMLOV",18824 cpm
same,[3H]cpm incorporation,"Donor #2, CD40 + IL4, 10 μM BMLOV",12662 cpm
same,[3H]cpm incorporation,"Donor #2, CD40 + IL4, 25 μM BMLOV",6013 cpm
same,[3H]cpm incorporation,"Donor #2, PMA + CD40, 1 μM BMLOV",49102 cpm
same,[3H]cpm incorporation,"Donor #2, PMA + CD40, 5 μM BMLOV",47624 cpm
same,[3H]cpm incorporation,"Donor #2, PMA + CD40, 10 μM BMLOV",29024 cpm
same,[3H]cpm incorporation,"Donor #2, PMA + CD40, 25 μM BMLOV",15671 cpm
same,[3H]cpm incorporation,"Donor #2, PMA + IL4, 1 μM BMLOV",53642 cpm
same,[3H]cpm incorporation,"Donor #2, PMA + IL4, 5 μM BMLOV",41892 cpm
same,[3H]cpm incorporation,"Donor #2, PMA + IL4, 10 μM BMLOV",20313 cpm
same,[3H]cpm incorporation,"Donor #2, PMA + IL4, 25 μM BMLOV",2730 cpm
